Patent EP3415523A1, “COMBINATION MEDICAMENT COMPRISING A PRODRUG AND INHALABLE CATALYST” (priority 2017, dated 2018)

Experiments:
[1] = tested on: A549 cells; test: EC50 experiments, dose response of cell viability (PrestoBlue); type: cell-based; settings: 3 days of treatment, prodrug versus its deprotected counterpart (gemcitabine)
Method: A549 cells were seeded in 96-well plates at a cell concentration of 2,000 cells/well and incubated overnight before treatment. Each well was then replaced with 100 µL of fresh F-12K medium containing protected gemcitabine (concentration ranging from 10^4 µM to 10^-4 µM) and DMSO (2% v/v), control wells were replaced with 100 µL of fresh F-12K medium and DMSO (2% v/v). Control and treated plates were incubated for 72 h before PrestoBlue cell viability reagent (10% v/v) was added to each well and the plate incubated for 2 h. Fluorescence emission was measured using a microplate reader (Tecan; ex: 540 nm; em: 590 nm).
Dose-response experiments were performed in order to determine the half maximal effective concentration (EC50) of both the drug as well as the prodrug.

[2] = tested on: A549 cells; test: Extracellular prodrug activation, viability assay (PrestoBlue); type: cell-based; settings: 0.05 µM; for viability: 3 days
Method: A549 cells were seeded in 96-well plates at a cell concentration of 4,000 cells/well and incubated overnight before treatment. Each well was then replaced with 100 µL of fresh F-12K medium containing protected gemcitabine (0.05 µM) and DMSO (2% v/v), control wells were replaced with 100 µL of fresh F-12K medium and DMSO (2% v/v). Plates were incubated for 1 h before 10 µL of a platinum nanoparticles solution (50 ppm, 3 nm diameter) was added to each well and 10 µL of water was added to control wells. Plates were incubated for 1 h before placing them in a custom-designed gas chamber. Control plates were left untouched in the incubator. The chamber was placed in the incubator, connected to a gas bottle outside the incubator and to an outlet. The gas chamber was flushed for 1 min with hydrogen gas at 1 bar and closed. Plates were incubated 2 h in the gas chamber before placing them back in the incubator with the control plates. Control and treated plates were incubated for 72 h before PrestoBlue cell viability reagent (10% v/v) was added to each well and the plate incubated for 2 h. Fluorescence emission was measured using a microplate reader (Tecan; ex: 540 nm; em: 590 nm).
This could be due to a constitutively occurring slow reduction of the nitro group by the cells. […] Although this would require further investigations, it could be a consequence of the increased lipophilicity of the protected drug thereby conferring an increased uptake of the drug with respect to its deprotected counterpart.

[3] = tested on: mammalian cells; settings: in vitro test on mammalian cells; cited from earlier work

Compound	difference of EC50 values of drug and prodrug [1]	viability ([2]; both hydrogen and platinum present, compared with positive control gemcitabine)	viability ([2]; the 3 conditions where either hydrogen and/or platinum is missing)	activity of the drug ([2]; Fig. 7 and Fig. 8, 3 days, 5 ppm or 10 ppm platinum nanoparticles, four conditions with/without hydrogen and catalyst)	mutagenic / genotoxic [3]
O=C(Nc1ccn([C@@H]2O[C@H](CO)[C@@H](O)C2(F)F)c(=O)n1)OCc1ccc([N+](=O)[O-])cc1 [gemcitabine prodrug, p-Nitrobenzyloxycarbonyl Gemcitabine]	about 5 orders of magnitude	slightly lower viability than the positive control with gemcitabine	A small decrease	only recovered if both the hydrogen and the platinum nanoparticles are present	
Cc1ccc(N)cc1 [p-toluidine]					neither mutagenic nor genotoxic
